Source: patent EP2990408B1, “NOVEL WHITENING AGENT” (Nichirei Biosciences Inc., priority 2013, dated 2014)
Where two headings read alike, the source gives them in different places.

Tests used:
[1] = Stability test in aqueous citrate buffer solution (reversed-phase HPLC quantification); assay type: physicochemical; details: for percentages of compounds remaining in the test solutions after storage: 3 weeks, 20 mM citrate buffer solution (pH 6.0), 0.1% (weight/volume)
Protocol: 3H2P phosphate monoester (1) (not according to the invention) and 3H2P phosphate bisester (2) (according to the invention) in the form of free acid were dissolved in a 20 mM citrate buffer solution (pH 6.0) to a concentration of 0.1% (weight/volume). The test solutions were stored at 4°C, 25°C, or 40°C for 3 weeks. 3H2P phosphate monoester (1) or 3H2P phosphate bisester (2) contained in the stored test solutions were quantitatively analyzed via reversed-phase HPLC (Inertsil® ODS-3, 5 µm, 4.6 × 250 mm, GL Sciences). For comparative example, the similar test was carried out in the manner described above with the use of 3H2P. […]

tyrosinase = assay: Test of tyrosinase activity inhibition (L-DOPA substrate, absorbance at 475 nm); assay type: biochemical; details: Fig. 2; for tyrosinase inhibitory activity compared with 3H2P: at the same concentration as 3H2P; for tyrosinase inhibitory activity: free acid, concentration of 0.1 to 0.5 mg/ml
Protocol: A solution of 6 mM L-DOPA, an aqueous solution of the test compound adjusted to a given concentration, and a phosphate buffer (pH 6.8) were mixed at a ratio of 2:2:1 by volume. The resulting substrate mixture (1.0 ml) was mixed with 0.2 ml of a solution of 0.017 mg/ml tyrosinase (Sigma), and the enzyme reaction was initiated at 37°C. The absorbance of the enzyme reaction solution was measured at 475 nm 0 and 3 minutes after the initiation of the reaction. The test group subjected to the enzyme reaction in the same manner described above, except that the test compound was not included, was designate as the blank test group. On the basis of the measured absorbance, the inhibition rate of tyrosinase activity was determined using the formula shown below. […] Inhibition rate of tyrosinase activity (%) = (1−(The difference in the absorbance of the test compound in the enzyme reaction solution between 0 minutes and 3 minutes after the initiation of the reaction)/(The difference in the absorbance of the blank in the enzyme reaction solution between 0 min and 3 min)) × 100 [formula]

[2] = test system: Mouse-derived B16 melanoma cells 4A5; assay: Test for melanin production inhibition; assay type: cell-based; details: for melanin amount relative to the melanin amount of the control group: concentration of 5 µg/ml, control group = 100, day 6 of culture; for melanin production inhibitory activity: concentrations of 1, 5, and 10 µg/ml, compared with 3H2P and arbutin, Fig. 1; for melanin production inhibitory activity, free acid compared with triethylamine salt: free acid (Fig. 1A) vs triethylamine salt (Fig. 1B)
Protocol: Mouse-derived B16 melanoma cells 4A5 (RIKEN) were seeded on a 6-well plate with the use of DMEM medium containing 10% FBS to a cell density of 5.0 × 10^4 cells/well (day 0 of culture), and culture was conducted at 37°C in the presence of 5% CO2 for 24 hours. On the following day, the cell-seeded medium was exchanged with a medium supplemented with the test compound at a given concentration (day 1 of culture). The medium was exchanged with a fresh medium every other day from day 2 and thereafter. The cells were recovered via treatment with trypsin on day 6 of culture, and melanin was extracted using an aqueous solution of 1 N sodium hydroxide. The absorbance of the melanin extract was measured at 405 nm, and the melanin amount was determined using a calibration curve prepared with the use of a melanin standard sample. In addition, the protein amount of the cells recovered in the manner described below was determined using the DC Protein Assay Kit (BIO-RAD) and employed as the cell count index. […] In the figure, the melanin amount and the cell count of test groups to which the test compounds had been added are represented relative to the measured melanin amount and cell count of the control group to which no test compound had been added (concentration: 0), which is designated as 100.

Row | SMILES | stability in weak-acidic to neutral water, compared with non-phosphorylated 3H2P [1] | tyrosinase inhibitory activity compared with 3H2P (tyrosinase) | tyrosinase inhibitory activity (tyrosinase) | melanin amount relative to the melanin amount of the control group [2] | melanin production inhibitory activity [2] | melanin production inhibitory activity, free acid compared with triethylamine salt [2] | percentages of compounds remaining in the test solutions after storage ([1]; 4°C) [%] | percentages of compounds remaining in the test solutions after storage ([1]; 25°C) [%] | percentages of compounds remaining in the test solutions after storage ([1]; 40°C) [%] | stability in weak-acidic to neutral water, compared with non-phosphorylated 3H2P ([1]; summary in words of Table 1)
1 | O=c1occcc1OP(=O)(O)O [3H2P phosphate monoester (1), 3-hydroxy-2-pyrone phosphate monoester] | remarkably improved stability | lower than the tyrosinase inhibitory activity of 3H2P | low tyrosinase inhibitory activity | approximately 50% | slightly lower than that of 3H2P but equivalent to that of arbutin | approximately equivalent melanin production inhibitory activity | – | – | – | –
2 | O=c1occcc1O [Compound 3H2P, 3-hydroxy-2-pyrone, reference compound] | – | – | – | – | – | – | 98.4 | 87.3 | 53.2 | –
3 | O=c1occcc1OP(=O)(O)Oc1cccoc1=O [3H2P phosphate bisester (2), 3-hydroxy-2-pyrone phosphate bisester] | – | lower than the tyrosinase inhibitory activity of 3H2P | low tyrosinase inhibitory activity | approximately 50% | slightly lower than that of 3H2P but equivalent to that of arbutin | approximately equivalent melanin production inhibitory activity | 100 | 100 | 99.3 | remarkably improved stability
